Reference: patent US6753177B1, “P-glycoproteins and uses thereof” (Becton Dickinson and Company, priority 1999, dated 2004)

Biological target: T1, dog PGP (Canis lupus familiaris, UniProt C0KKU9)
T1 construct: expressed in transfected cells; host or cells: LLC-PK1 cells (ATCC), electroporated with the p222CMV episomal vector and selected with hygromycin B
Experiment: Polarization of vinblastine transport across dog PGP transfected LLC-PK1 cell monolayers in Transwells
Assay type: cell-based
Details: PGP transfected cells, compared with control cells; vinblastine (0.1 uM) transport in Transwells
From the text: Dog PGP cDNA (SEQ ID NO:1) is introduced into a clonal population of LLC-PK1 cells in a vector that confers resistance to hygromycin B. LLC-PK1 cells are obtained from the American Type Culture Collections and are propagated in Medium 199 supplemented to 7% with fetal bovine serum. LLC-PK1 cells are recloned prior to transfection in order to assure homogeneity of the cell population. Briefly, dog PGP cDNA is incorporated into the p222CMV vector. […] The PGP cDNA is under the control of the cytomegalovirus (CMV) immediate early promoter. The vector confers resistance to hygromycin B. Cells (in 0.4 mL) and DNA (10 to 20 μg) were transfected by electroporation using a BTX Electro cell manipulator model 600 using a 2 mm gap cell, 100V, 2500 μF capacitance and 72 ohm resistance. […] Expression of PGP is measured by the polarization of vinblastine (0.1 uM) transport in Transwells™.
LLC-PK1 cell based transport studies are conducted in 24 well Transwells™ (Corning Costar, Catalog number 3415). […] Transport is measured under sink conditions in both the apical to basolateral (A to B) and basolateral to apical (B to A) directions. […] Quantitation of the amount of compound transported is by liquid scintillation counting (vinblastine) or HPLC with UV or mass spectrometric detection.
Functional expression of dog PGP is measured by the polarization of transport of vinblastine.

T1 sequence (C0KKU9 1-1281): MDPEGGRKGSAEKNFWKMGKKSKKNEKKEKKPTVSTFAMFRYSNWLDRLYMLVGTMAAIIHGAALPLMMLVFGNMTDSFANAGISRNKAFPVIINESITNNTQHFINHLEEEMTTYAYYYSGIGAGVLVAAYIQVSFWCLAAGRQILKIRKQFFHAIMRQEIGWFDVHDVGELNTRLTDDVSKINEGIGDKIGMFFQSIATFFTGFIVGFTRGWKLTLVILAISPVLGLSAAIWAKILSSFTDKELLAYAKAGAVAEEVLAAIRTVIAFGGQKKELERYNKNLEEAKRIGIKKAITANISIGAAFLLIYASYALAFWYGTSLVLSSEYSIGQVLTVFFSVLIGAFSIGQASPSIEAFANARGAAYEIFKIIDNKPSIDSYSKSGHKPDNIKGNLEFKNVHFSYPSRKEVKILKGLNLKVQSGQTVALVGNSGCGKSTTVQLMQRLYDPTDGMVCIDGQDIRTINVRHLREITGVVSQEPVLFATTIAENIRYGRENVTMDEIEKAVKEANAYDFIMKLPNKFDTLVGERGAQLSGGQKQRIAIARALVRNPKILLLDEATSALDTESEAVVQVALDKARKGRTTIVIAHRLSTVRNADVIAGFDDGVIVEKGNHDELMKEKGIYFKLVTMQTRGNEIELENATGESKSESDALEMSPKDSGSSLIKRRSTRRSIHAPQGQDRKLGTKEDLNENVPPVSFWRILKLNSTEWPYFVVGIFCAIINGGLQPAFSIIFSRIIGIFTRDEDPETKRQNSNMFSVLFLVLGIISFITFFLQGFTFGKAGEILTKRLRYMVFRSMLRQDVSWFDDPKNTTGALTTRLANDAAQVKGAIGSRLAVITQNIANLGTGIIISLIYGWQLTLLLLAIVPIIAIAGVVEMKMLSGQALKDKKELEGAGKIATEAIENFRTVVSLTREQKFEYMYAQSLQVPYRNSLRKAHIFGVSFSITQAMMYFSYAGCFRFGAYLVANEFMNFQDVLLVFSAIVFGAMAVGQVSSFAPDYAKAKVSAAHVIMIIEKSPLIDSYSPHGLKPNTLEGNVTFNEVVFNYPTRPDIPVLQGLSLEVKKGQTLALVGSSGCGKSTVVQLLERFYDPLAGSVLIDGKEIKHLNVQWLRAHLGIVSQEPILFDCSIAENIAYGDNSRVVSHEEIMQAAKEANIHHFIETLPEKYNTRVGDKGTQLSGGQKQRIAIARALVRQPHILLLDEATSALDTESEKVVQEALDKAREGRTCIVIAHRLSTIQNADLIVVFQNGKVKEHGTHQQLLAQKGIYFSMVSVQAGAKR

For `CC[C@]1(O)C[C@@H]2CN(CCc3c([nH]c4ccccc34)[C@@](C(=O)OC)(c3cc4c(cc3OC)N(C)[C@H]3[C@@](O)(C(=O)OC)[C@H](OC(C)=O)[C@]5(CC)C=CCN6CC[C@]43[C@@H]65)C2)C1` [vinblastine], the “B to A/A to B ratio” value was “much higher ratio”.
